Reference: patent US9187467B2, “2-phenyl benzothiazole linked imidazole compounds as potential anticancer agents and process for the preparation thereof” (Council of Scientific and Industrial Research, priority 2012, dated 2015)
Like-named read-outs stand apart in the source and are kept apart here.

What was measured:
HL-60 (TB) = test: SRB anticancer assay, leukemia; assay type: cell-based, human; parameters: Log10GI50: unit not given here
K-562 = test: SRB anticancer assay, leukemia; assay type: cell-based, human; parameters: Log10GI50: unit not given here
SR = test: SRB anticancer assay, leukemia; assay type: cell-based, human; details: Homo sapiens, 48 h
A549/ATCC = test: SRB anticancer assay, non-small lung; assay type: cell-based, human; parameters: Log10GI50: unit not given here
NCI-H226 = test: SRB anticancer assay, non-small lung; assay type: cell-based, human; details: Homo sapiens, NCI-H226, 48 h
NCI-H23 = test: SRB anticancer assay, non-small lung; assay type: cell-based, human
NCI-H322M = test: SRB anticancer assay, non-small lung; assay type: cell-based, human; details: Homo sapiens, 48 h
NCI-H460 = test: SRB anticancer assay, non-small lung; assay type: cell-based, human; details: Homo sapiens, NCI-H460, 48 h
NCI-H522 = test: SRB anticancer assay, non-small lung; assay type: cell-based, human; parameters: Log10GI50: unit not given here
HT29 = test: SRB anticancer assay, colon; assay type: cell-based, human; details: Homo sapiens, HT-29; HT29, 48 h
KM12 = test: SRB anticancer assay, colon; assay type: cell-based, human; details: Homo sapiens, KM12, 48 h
SF-268 = test: SRB anticancer assay, CNS; assay type: cell-based, human; parameters: Log10GI50: unit not given here
SF-295 = test: SRB anticancer assay, CNS; assay type: cell-based, human; parameters: Log10GI50: unit not given here
SF-539 = test: SRB anticancer assay, CNS; assay type: cell-based, human; parameters: Log10GI50: unit not given here
U251 = test: SRB anticancer assay, CNS; assay type: cell-based, human; parameters: Log10GI50: unit not given here
IGROV1 = test: SRB anticancer assay, ovarian; assay type: cell-based, human; details: Homo sapiens, IGROV-1; IGROV1, 48 h
OVCAR-3 = test: SRB anticancer assay, ovarian; assay type: cell-based, human; parameters: Log10GI50: unit not given here
OVCAR-5 = test: SRB anticancer assay, ovarian; assay type: cell-based, human; details: Homo sapiens, OVCAR-5, 48 h
SK-OV-3 = test: SRB anticancer assay, ovarian; assay type: cell-based, human; details: Homo sapiens, SK-OV-3, 48 h
786-0 = test: SRB anticancer assay, renal; assay type: cell-based, human
A498 = test: SRB anticancer assay, renal; assay type: cell-based, human; parameters: Log10GI50: unit not given here
ACHN = test: SRB anticancer assay, renal; assay type: cell-based, human; parameters: Log10GI50: unit not given here
TK-10 = test: SRB anticancer assay, renal; assay type: cell-based, human; details: Homo sapiens, TK-10, 48 h
UO-31 = test: SRB anticancer assay, renal; assay type: cell-based, human; parameters: Log10GI50: unit not given here
PC-3 = test: SRB anticancer assay, prostate; assay type: cell-based, human; parameters: Log10GI50: unit not given here
DU-145 = test: SRB anticancer assay, prostate; assay type: cell-based, human; parameters: Log10GI50: unit not given here
MDA-MB-231/ATCC = test: SRB anticancer assay, breast; assay type: cell-based, human; parameters: Log10GI50: unit not given here; details: for GI50: Homo sapiens, MDA-MB-231, 48 h, 48 h, read-out: GI50
HS 578T = test: SRB anticancer assay, breast; assay type: cell-based, human; parameters: Log10GI50: unit not given here
BT-549 = test: SRB anticancer assay, breast; assay type: cell-based, human; parameters: Log10GI50: unit not given here
T-47D = test: SRB anticancer assay, breast; assay type: cell-based; details: Homo sapiens, T47D, 48 h
LOX IMVI = test: SRB anticancer assay, melanoma; assay type: cell-based, human; parameters: Log10GI50: unit not given here
MALME-3M = test: SRB anticancer assay, melanoma; assay type: cell-based, human; parameters: Log10GI50: unit not given here
SK-MEL-28 = test: SRB anticancer assay, melanoma; assay type: cell-based, human; parameters: Log10GI50: unit not given here
SK-MEL-5 = test: SRB anticancer assay, melanoma; assay type: cell-based, human; details: Homo sapiens, SK-MEL-5, 48 h
UACC-257 = test: SRB anticancer assay, melanoma; assay type: cell-based, human
UACC-62 = test: SRB anticancer assay, melanoma; assay type: cell-based, human

Question: Which results are given for `COc1cc(OC)cc(-c2cncn2-c2ccc(-c3nc4cc(OC)c(OC)c(OC)c4s3)cc2)c1` [Compound 7d, 2-(4-(5-(3,5-Dimethoxyphenyl)-1H-imidazol-1-yl)phenyl)-5,6,7-trimethoxybenzo[d]thiazole]?
Answer: Log10GI50 (HL-60 (TB); HL-60(TB), present compounds): −5.61; GI50 (HL-60 (TB); Homo sapiens, HL-60, 48 h): 2.43 µM; GI50 (K-562; Homo sapiens, K562, K-562, 48 h): 3.57 µM; Log10GI50 (K-562; K-562, present compounds): −5.45; GI50 (SR): 7.14 µM; GI50 (A549/ATCC; Homo sapiens, 48 h): 5.59 µM; Log10GI50 (A549/ATCC; present compounds): −5.25; GI50 (NCI-H226): 21.7 µM; GI50 (NCI-H23; Homo sapiens, NCI-H23, 48 h): 9.56 µM; Log10GI50 (NCI-H23; NCI-H23, present compounds): −5.02 log10(M); GI50 (NCI-H322M): 86.5 µM; GI50 (NCI-H460): 7.46 µM; GI50 (NCI-H522; Homo sapiens, NCI-H522, 48 h): 11.8 µM; Log10GI50 (NCI-H522; NCI-H522, present compounds): −4.93; GI50 (HT29): 8.33 µM; GI50 (KM12): 5.54 µM; GI50 (SF-268; Homo sapiens, SF-268, 48 h): 22.1 µM; Log10GI50 (SF-268; SF-268, present compounds): −4.66; GI50 (SF-295; Homo sapiens, SF-295, 48 h): 3.64 µM; Log10GI50 (SF-295; SF-295, present compounds): −5.44; GI50 (SF-539; Homo sapiens, SF-539, 48 h): 22 µM; Log10GI50 (SF-539; SF-539, present compounds): −4.66; GI50 (U251; Homo sapiens, U-251, U251, 48 h): 5.44 µM; Log10GI50 (U251; U251, present compounds): −5.26; GI50 (IGROV1): 9.6 µM; GI50 (OVCAR-3; Homo sapiens, OVCAR-3, 48 h): 6.07 µM; Log10GI50 (OVCAR-3; OVCAR-3, present compounds): −5.22; GI50 (OVCAR-5): > 100 µM; GI50 (SK-OV-3): 49.9 µM; Log10GI50 (786-0; 786-0, present compounds): −4.99 log10 M; GI50 (786-0; Homo sapiens, 786-0, 48 h): 10.3 µM; Log10GI50 (A498; A498, present compounds): >−4.0; GI50 (A498; Homo sapiens, A498, 48 h): > 100 µM; GI50 (ACHN; Homo sapiens, 48 h): 11.5 µM; Log10GI50 (ACHN; present compounds): −4.94; GI50 (TK-10): 26.4 µM; GI50 (UO-31; Homo sapiens, UO-31, 48 h): 1.94 µM; Log10GI50 (UO-31; UO-31, present compounds): −5.71; GI50 (PC-3; Homo sapiens, PC-3, 48 h): 3.17 µM; Log10GI50 (PC-3; PC-3, present compounds): −5.50; Log10GI50 (DU-145; DU-145, present compounds): −4.51; GI50 (DU-145; Homo sapiens, DU-145, 48 h): 31.1 µM; GI50 (MDA-MB-231/ATCC; MDA-MB-231/ATCC (row head MDA-MB-)): 19.2 µM; GI50 (MDA-MB-231/ATCC; row head printed 231/ATCC (second line of MDA-MB-231/ATCC)): 20.9 µM; Log10GI50 (MDA-MB-231/ATCC; MDA-MB-231/ATCC, present compounds): −4.72; GI50 (HS 578T; Homo sapiens, 48 h): 6.71 µM; Log10GI50 (HS 578T; present compounds): −4.68; Log10GI50 (BT-549; BT-549, present compounds): −5.17; GI50 (BT-549; Homo sapiens, BT-549, 48 h): 4.74 µM; GI50 (T-47D): 10.7 µM; GI50 (LOX IMVI; Homo sapiens, 48 h): 6.93 µM; Log10GI50 (LOX IMVI; present compounds): −5.16; GI50 (MALME-3M; Homo sapiens, Malme-3M, 48 h): 9.58 µM; Log10GI50 (MALME-3M; MALME-3M, present compounds): −5.02; GI50 (SK-MEL-28; Homo sapiens, SK-MEL-28, 48 h): 31.6 µM; Log10GI50 (SK-MEL-28; SK-MEL-28, present compounds): −4.50; GI50 (SK-MEL-5): 2.85 µM; GI50 (UACC-257; Homo sapiens, UACC-257, 48 h): 20.5 µM; Log10GI50 (UACC-257; UACC-257, present compounds): −4.69 log10(M); GI50 (UACC-62; Homo sapiens, UACC-62, 48 h): 13.8 µM; Log10GI50 (UACC-62; UACC-62, present compounds): −4.86 log10 M
